Assay results reported in PubChem BioAssay (NCI).
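Tested at 5 concentrations; 48 h exposure; 96-well plates; endpoints linearly interpolated, else capped at highest concentration. Here, GI50 denotes the concentration required for 50% inhibition of growth. Definition used: TGI = concentration required for complete inhibition of growth.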

How the values were obtained:
Experiment in all cases: DTP human tumour cell line panel, 48 h
OVCAR-5 ovarian = system: OVCAR-5 ovarian
BT-549 breast = system: BT-549 breast
ACHN renal = system: ACHN renal
NCI-H226 lung = system: NCI-H226 lung
MALME-3M melanoma = system: MALME-3M melanoma
786-0 renal = system: 786-0 renal
OVCAR-4 ovarian = system: OVCAR-4 ovarian
NCI/ADR-RES ovarian = system: NCI/ADR-RES ovarian
HS 578T breast = system: HS 578T breast
HCC-2998 colon = system: HCC-2998 colon
HOP-92 NSCLC = system: HOP-92 NSCLC
HCT-116 colon = system: HCT-116 colon
OVCAR-8 ovarian = system: OVCAR-8 ovarian
M14 melanoma = system: M14 melanoma
SR leukemia = system: SR leukemia
A549 NSCLC = system: A549 NSCLC
SF-295 CNS = system: SF-295 CNS
HL-60(TB) leukemia = system: HL-60(TB) leukemia
HCT-15 colon = system: HCT-15 colon
SK-OV-3 ovarian = system: SK-OV-3 ovarian
NCI-H460 lung = system: NCI-H460 lung
SK-MEL-5 melanoma = system: SK-MEL-5 melanoma
SW-620 colon = system: SW-620 colon
SNB-75 CNS = system: SNB-75 CNS
OVCAR-3 ovarian = system: OVCAR-3 ovarian
PC-3 prostate = system: PC-3 prostate
HOP-62 NSCLC = system: HOP-62 NSCLC
SN12C renal = system: SN12C renal
SF-539 CNS = system: SF-539 CNS
COLO 205 colon = system: COLO 205 colon
KM12 colon = system: KM12 colon
MDA-MB-435 = system: MDA-MB-435
RPMI-8226 leukemia = system: RPMI-8226 leukemia
T-47D breast = system: T-47D breast
UO-31 renal = system: UO-31 renal
RXF 393 renal = system: RXF 393 renal
CAKI-1 renal = system: CAKI-1 renal
NCI-H522 lung = system: NCI-H522 lung
A498 renal = system: A498 renal
SF-268 CNS = system: SF-268 CNS
SNB-19 CNS = system: SNB-19 CNS
CCRF-CEM leukemia = system: CCRF-CEM leukemia
LOX IMVI melanoma = system: LOX IMVI melanoma
MCF7 breast = system: MCF7 breast
UACC-257 melanoma = system: UACC-257 melanoma
MDA-MB-231 breast = system: MDA-MB-231 breast
HT29 colon = system: HT29 colon
SK-MEL-2 melanoma = system: SK-MEL-2 melanoma
TK-10 renal = system: TK-10 renal
SK-MEL-28 melanoma = system: SK-MEL-28 melanoma
K-562 leukemia = system: K-562 leukemia
IGROV1 ovarian = system: IGROV1 ovarian
MOLT-4 leukemia = system: MOLT-4 leukemia
DU-145 prostate = system: DU-145 prostate
NCI-H23 lung = system: NCI-H23 lung
U251 CNS = system: U251 CNS
UACC-62 melanoma = system: UACC-62 melanoma
EKVX NSCLC = system: EKVX NSCLC

`CC1=C(SCCC(=O)OCC(=O)NCCC[Te]c2ccccc2)C(=O)c2ccccc2C1=O` showed a GI50 (OVCAR-5 ovarian) of 2.86 µM, a TGI (OVCAR-5 ovarian) of 7.68 µM and a GI50 (BT-549 breast) of 1.7 µM. For the same molecule, the TGI (BT-549 breast) was 3.95 µM, the GI50 (ACHN renal) was 2.76 µM and the TGI (ACHN renal) was 10.2 µM. The GI50 (NCI-H226 lung) was 1.64 µM, the TGI (NCI-H226 lung) was 3.64 µM and the GI50 (MALME-3M melanoma) was 2.22 µM. It also gave a TGI (MALME-3M melanoma) of 5.56 µM, a GI50 (786-0 renal) of 2.64 µM and a TGI (786-0 renal) of 7.33 µM. It also gave a GI50 (OVCAR-4 ovarian) of 2.21 µM, a TGI (OVCAR-4 ovarian) of 7.34 µM and a GI50 (NCI/ADR-RES ovarian) of 2.22 µM. It also gave a TGI (NCI/ADR-RES ovarian) of 7.32 µM, a GI50 (HS 578T breast) of 2.97 µM and a TGI (HS 578T breast) of over 33.7 µM. The GI50 (HCC-2998 colon) was 1.78 µM, the TGI (HCC-2998 colon) was 4.58 µM and the GI50 (HOP-92 NSCLC) was 1.8 µM. For the same molecule, the TGI (HOP-92 NSCLC) was 5.01 µM, the GI50 (HCT-116 colon) was 1.63 µM and the TGI (HCT-116 colon) was 4.12 µM. For the same molecule, the GI50 (OVCAR-8 ovarian) was 2.74 µM, the TGI (OVCAR-8 ovarian) was 11 µM and the GI50 (M14 melanoma) was 2.11 µM. The TGI (M14 melanoma) was 5.27 µM, the GI50 (SR leukemia) was 1.97 µM and the TGI (SR leukemia) was 17.4 µM. It also gave a GI50 (A549 NSCLC) of 0.793 µM, a TGI (A549 NSCLC) of 2.95 µM and a GI50 (SF-295 CNS) of 1.11 µM. It also gave a TGI (SF-295 CNS) of 4.24 µM, a GI50 (HL-60(TB) leukemia) of 2.58 µM and a TGI (HL-60(TB) leukemia) of 7.07 µM. It also gave a GI50 (HCT-15 colon) of 2.73 µM, a TGI (HCT-15 colon) of 11.4 µM and a GI50 (SK-OV-3 ovarian) of 1.9 µM. For the same molecule, the TGI (SK-OV-3 ovarian) was 4.62 µM, the GI50 (NCI-H460 lung) was 0.79 µM and the TGI (NCI-H460 lung) was 3 µM. It also gave a GI50 (SK-MEL-5 melanoma) of 1.52 µM, a TGI (SK-MEL-5 melanoma) of 2.88 µM and a GI50 (SW-620 colon) of 3.79 µM. The TGI (SW-620 colon) was 15.6 µM, the GI50 (SNB-75 CNS) was 1.37 µM and the TGI (SNB-75 CNS) was 5.42 µM. The GI50 (OVCAR-3 ovarian) was 2.23 µM, the TGI (OVCAR-3 ovarian) was 4.81 µM and the GI50 (PC-3 prostate) was 1.96 µM. For the same molecule, the TGI (PC-3 prostate) was 9.76 µM, the GI50 (HOP-62 NSCLC) was 2.04 µM and the TGI (HOP-62 NSCLC) was 5.19 µM. For the same molecule, the GI50 (SN12C renal) was 2.21 µM, the TGI (SN12C renal) was 7.99 µM and the GI50 (SF-539 CNS) was 2.29 µM. For the same molecule, the TGI (SF-539 CNS) was 6.71 µM, the GI50 (COLO 205 colon) was 1.97 µM and the TGI (COLO 205 colon) was 3.88 µM. The GI50 (KM12 colon) was 2.96 µM, the TGI (KM12 colon) was 10.1 µM and the GI50 (MDA-MB-435) was 3.07 µM. It also gave a TGI (MDA-MB-435) of 10.4 µM, a GI50 (RPMI-8226 leukemia) of 2.64 µM and a TGI (RPMI-8226 leukemia) of 9.84 µM. It also gave a GI50 (T-47D breast) of 2.2 µM, a TGI (T-47D breast) of 6.21 µM and a GI50 (UO-31 renal) of 1.74 µM. It also gave a TGI (UO-31 renal) of 8.66 µM, a GI50 (RXF 393 renal) of 1.78 µM and a TGI (RXF 393 renal) of 5.16 µM. The GI50 (CAKI-1 renal) was 1.86 µM, the TGI (CAKI-1 renal) was 6.87 µM and the GI50 (NCI-H522 lung) was 2.71 µM. It also gave a TGI (NCI-H522 lung) of 10.8 µM, a GI50 (A498 renal) of 1.9 µM and a TGI (A498 renal) of 6.16 µM. The GI50 (SF-268 CNS) was 2.61 µM, the TGI (SF-268 CNS) was 9.42 µM and the GI50 (SNB-19 CNS) was 2.78 µM. For the same molecule, the TGI (SNB-19 CNS) was 10.4 µM, the GI50 (CCRF-CEM leukemia) was 2.1 µM and the TGI (CCRF-CEM leukemia) was 19.6 µM. It also gave a GI50 (LOX IMVI melanoma) of 1.72 µM, a TGI (LOX IMVI melanoma) of 4.07 µM and a GI50 (MCF7 breast) of 2.5 µM. For the same molecule, the TGI (MCF7 breast) was 10.7 µM, the GI50 (UACC-257 melanoma) was 2.88 µM and the TGI (UACC-257 melanoma) was 8.23 µM. The GI50 (MDA-MB-231 breast) was 1.8 µM, the TGI (MDA-MB-231 breast) was 4.34 µM and the GI50 (HT29 colon) was 3.29 µM. For the same molecule, the TGI (HT29 colon) was 11.1 µM, the GI50 (SK-MEL-2 melanoma) was 2.75 µM and the TGI (SK-MEL-2 melanoma) was 7.24 µM. It also gave a GI50 (TK-10 renal) of 3.87 µM, a TGI (TK-10 renal) of 12.4 µM and a GI50 (SK-MEL-28 melanoma) of 2.41 µM. For the same molecule, the TGI (SK-MEL-28 melanoma) was 5.78 µM, the GI50 (K-562 leukemia) was 3.3 µM and the TGI (K-562 leukemia) was 19.4 µM. It also gave a GI50 (IGROV1 ovarian) of 1.92 µM, a TGI (IGROV1 ovarian) of 5.58 µM and a GI50 (MOLT-4 leukemia) of 3.12 µM. It also gave a TGI (MOLT-4 leukemia) of 12.2 µM, a GI50 (DU-145 prostate) of 2.95 µM and a TGI (DU-145 prostate) of 8.05 µM. The GI50 (NCI-H23 lung) was 1.84 µM, the TGI (NCI-H23 lung) was 5.25 µM and the GI50 (U251 CNS) was 2.39 µM. It also gave a TGI (U251 CNS) of 8.06 µM, a GI50 (UACC-62 melanoma) of 1.94 µM and a TGI (UACC-62 melanoma) of 4.83 µM. It also gave a GI50 (EKVX NSCLC) of 0.443 µM and a TGI (EKVX NSCLC) of 5.11 µM.
